Measurements taken from US20240209028A1, “CNP COMPOUNDS” (priority 2022, published 2024).
In brackets after ≈: the same amount, converted by molar mass. Starred links: 1 amine or outer side, 2 acyl side, 3 side chain; linkers in the order of their positions; H or OH if unused. Positions of bridges follow the written chain, without caps; N, C: chain ends. Residues, ends and D or L forms follow the SMILES beside them. *: point of attachment. C18 diacid = O=C(O)CCCCCCCCCCCCCCCCC(=O)*; γGlu = O=C(O)[C@H](CCC(=O)[*:2])N[*:1]; AEEA = NCCOCCOCC(=O)O

Key:
[1] = PK of CNP compounds after i.v. and s.c. administration to rats; details: male, Sprague Dawley, in vivo, iv, rat, i.v., about 100 nmol/kg; for clearance: read-out: Cl (L/hr/kg), i.v. administration (converted); for half-life: read-out: T½ (hr), i.v. administration (converted)
Method in brief: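 Male Sprague Dawley rats (n=4-6) were dosed at 300 nmol/kg s.c. or 100 nmol/kg i.v., formulated at pH 7.4 or 4.0, and sampled up to 72 h. Plasma levels were measured by TF-LC-MS against calibrators from 0.5 to 2000 nM. Non-compartmental PK used dose-normalized AUC for bioavailability, with values given as means.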

[2] = Solubility of CNP compounds at pH 4.0 and pH 6.5; assay type: physicochemical; details: 8 mM sodium phosphate, 23 mg/mL glycerol, pH 6.5, room temperature; read-out: Solubility at pH 6.5
Method in brief: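 Freeze-dried peptide was brought to a nominal ≥4000-5000 nmol/mL in 5 mM sodium acetate, 250 mM glycerol (pH 4.0) or in 8 mM sodium phosphate, 23 mg/mL glycerol (pH 6.5 via NaOH titration). Samples were equilibrated at room temperature overnight if undissolved, and supernatant concentration was measured by CAD.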

Row | SMILES | clearance [1] | half-life [1] | solubility [2]
1 | CC[C@H](C)[C@@H]1NC(=O)[C@H](CCCNC(=N)N)NC(=O)[C@H](CC(=O)O)NC(=O)[C@H](CC(C)C)NC(=O)[C@@H]2CCCN2C(=O)[C@H](CC(C)C)NC(=O)CNC(=O)[C@H](Cc2ccccc2)NC(=O)[C@@H](NC(=O)CNC(=O)[C@H](CO)NC(=O)[C@H](CO)NC(=O)[C@@H](NC(=O)CNC(=O)[C@@H](NC(=O)[C@H](CCCCN)NC(=O)[C@H](CCC(N)=O)NC(=O)[C@H](C)NC(=O)CNC(=O)[C@H](Cc2c[nH]cn2)NC(=O)[C@H](Cc2ccc(O)cc2)NC(=O)COCCOCCNC(=O)COCCOCCNC(=O)COCCOCCNC(=O)CC[C@H](NC(=O)CCCCCCCCCCCCCCCCC(=O)O)C(=O)O)[C@@H](C)O)C(C)C)CSSC[C@@H](C(=O)O)NC(=O)CNC(=O)[C@H](CC(C)C)NC(=O)CNC(=O)[C@H](CO)NC(=O)[C@H](CC(C)C)NC(=O)[C@H](CO)NC(=O)CNC1=O [compound 1352] ({C18 diacid-γGlu-AEEA-AEEA-AEEA}-YHGAQKTGVSSGCFGLPLDRIGSLSGLGC-OH; disulfide 13-29) | 0.0102 L/h/kg | 6.34 h | 7730 µM (≈ 28.9 mg/mL)
2 | CC[C@H](C)[C@@H]1NC(=O)[C@H](CCCNC(=N)N)NC(=O)[C@H](CC(=O)O)NC(=O)[C@H](CC(C)C)NC(=O)[C@@H]2CCCN2C(=O)[C@H](CC(C)C)NC(=O)CNC(=O)[C@H](Cc2ccccc2)NC(=O)[C@@H](NC(=O)CNC(=O)[C@H](CO)NC(=O)[C@H](CO)NC(=O)[C@H](CC(C)C)NC(=O)CNC(=O)[C@H](CCCCN)NC(=O)[C@H](CCCCN)NC(=O)[C@H](CCC(N)=O)NC(=O)[C@H](C)NC(=O)CNC(=O)[C@H](CCC(=O)O)NC(=O)[C@H](Cc2ccc(O)cc2)NC(=O)[C@H](CO)NC(=O)[C@H](CCCNC(=N)N)NC(=O)[C@H](C)NC(=O)[C@H](CCC(N)=O)NC(=O)[C@@H]2CCCN2C(=O)[C@H](Cc2c[nH]cn2)NC(=O)[C@H](CCC(=O)O)NC(=O)[C@H](CCC(N)=O)NC(=O)COCCOCCNC(=O)COCCOCCNC(=O)CC[C@H](NC(=O)CCCCCCCCCCCCCCCCC(=O)O)C(=O)O)CSSC[C@@H](C(=O)O)NC(=O)CNC(=O)[C@H](CC(C)C)NC(=O)CNC(=O)[C@H](CO)NC(=O)[C@H](CC(C)C)NC(=O)[C@H](CO)NC(=O)CNC1=O [compound 1379] ({C18 diacid-γGlu-AEEA-AEEA}-QEHPQARSYEGAQKKGLSSGCFGLPLDRIGSLSGLGC-OH; disulfide 21-37; C-terminus assumed) | 0.0051 L/h/kg | 9.8 h | 2670 µM (≈ 12.2 mg/mL)
3 | CC[C@H](C)[C@@H]1NC(=O)[C@H](CCCNC(=N)N)NC(=O)[C@H](CC(=O)O)NC(=O)[C@H](CC(C)C)NC(=O)[C@@H]2CCCN2C(=O)[C@H](CC(C)C)NC(=O)CNC(=O)[C@H](Cc2ccccc2)NC(=O)[C@@H](NC(=O)CNC(=O)[C@H](CCCCN)NC(=O)[C@H](CO)NC(=O)CNC(=O)CNC(=O)[C@H](CCCCN)NC(=O)[C@H](CCCCN)NC(=O)[C@H](CCC(N)=O)NC(=O)[C@H](C)NC(=O)CNC(=O)[C@H](CCC(=O)O)NC(=O)[C@H](Cc2ccc(O)cc2)NC(=O)COCCOCCNC(=O)COCCOCCNC(=O)CC[C@H](NC(=O)CCCCCCCCCCCCCCCCC(=O)O)C(=O)O)CSSC[C@@H](C(=O)O)NC(=O)CNC(=O)[C@H](CC(C)C)NC(=O)CNC(=O)[C@H](CO)NC(=O)[C@H](CC(C)C)NC(=O)[C@H](CO)NC(=O)CNC1=O [compound 1377] ({C18 diacid-γGlu-AEEA-AEEA}-YEGAQKKGGSKGCFGLPLDRIGSLSGLGC-OH; disulfide 13-29) | 0.00747 L/h/kg | 6.29 h | 443 µM (≈ 1.6 mg/mL)
